Measurements taken from patent US5242938A, “Derivatives of virginiamycin M1” (Merck & Co., Inc., priority 1992, dated 1993).
Converted amounts (≈) assume the structure as drawn. Read-outs that look alike come from different tables or passages of the source.

What was measured:
gastric acid secretion = details: cited from earlier work
[1] = tested on: Micrococcus luteus (Mb 1101, ATCC 9341); experiment: Agar diffusion disc assay, Micr 1101; type: cell-based; details: Micrococcus luteus; for MIC: read-out: Agar Diffusion MIC versus Micrococcus luteus; for zone of inhibition at 2.5 µg/disc: 2.50 μg/disc; for zone of inhibition at 5 µg/disc: 5.00 μg/disc; for zone of inhibition at 10 µg/disc: 10.0 μg/disc
In short: (§1)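 Paper-disc agar diffusion per Barry. Methanol stock 1 mg/ml, serial dilutions, 20 μl per 6 mm disc, air dried. Seeded plates ~10^6 cfu, ~18 h, 25° C. Zones to nearest mm; n=3, mean.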

[2] = tested on: En terobacter aergenes (Mb 835); experiment: Agar diffusion disc assay, Ent 835; type: cell-based; details: 18 h; @ 20 g/disc; read-out: Inhibition zone diameter, Ent 835
In short: as §1

CCK-A (rat pancreas) [3] = target: T1, CCK-A (rat pancreas) (Rattus norvegicus, UniProt P30551); experiment: [125I]BHCCK-8 radioligand binding, rat pancreatic preparation; details: read-out: CCK binding inhibition - IC50, [125I]BHCCK
T1 construct: from tissue; host or cells: rat pancreas
T1 sequence (P30551 1-444): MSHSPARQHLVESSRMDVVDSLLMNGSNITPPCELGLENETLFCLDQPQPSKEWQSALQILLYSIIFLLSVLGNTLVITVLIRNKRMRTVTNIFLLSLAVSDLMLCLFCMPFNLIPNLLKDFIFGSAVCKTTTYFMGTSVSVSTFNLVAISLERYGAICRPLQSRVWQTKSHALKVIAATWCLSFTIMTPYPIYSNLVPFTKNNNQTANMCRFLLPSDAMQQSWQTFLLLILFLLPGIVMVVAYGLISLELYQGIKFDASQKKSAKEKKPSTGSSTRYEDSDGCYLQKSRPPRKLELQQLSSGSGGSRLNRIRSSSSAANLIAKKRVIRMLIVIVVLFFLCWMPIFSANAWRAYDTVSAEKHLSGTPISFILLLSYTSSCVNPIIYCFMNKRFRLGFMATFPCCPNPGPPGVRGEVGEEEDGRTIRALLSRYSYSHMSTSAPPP
Experimental: (§2) The resulting supernatant was re-spun at 20,000×g for 20 minutes. […] Incubations were for 40 minutes at 4° C. and were terminated by filtration and washing with ice cold 100 mM saline. […] Incubations were for 30 minutes at room temperature and were terminated by filtration over GF/C filters and washing with 100 mM NaCl.

[4] = target: T2, CCK-B (guinea pig cortex) (Cavia porcellus, UniProt H0VZC5); experiment: [3H]L-365,260 CCK-B selective antagonist ligand binding, brain membranes; details: for IC50: read-out: CCK binding inhibition - IC50, [3H]L-365,260
T2 construct: guinea pig cortical preparations; from tissue; host or cells: guinea pig brain cortex membranes
T2 sequence (H0VZC5 1-426): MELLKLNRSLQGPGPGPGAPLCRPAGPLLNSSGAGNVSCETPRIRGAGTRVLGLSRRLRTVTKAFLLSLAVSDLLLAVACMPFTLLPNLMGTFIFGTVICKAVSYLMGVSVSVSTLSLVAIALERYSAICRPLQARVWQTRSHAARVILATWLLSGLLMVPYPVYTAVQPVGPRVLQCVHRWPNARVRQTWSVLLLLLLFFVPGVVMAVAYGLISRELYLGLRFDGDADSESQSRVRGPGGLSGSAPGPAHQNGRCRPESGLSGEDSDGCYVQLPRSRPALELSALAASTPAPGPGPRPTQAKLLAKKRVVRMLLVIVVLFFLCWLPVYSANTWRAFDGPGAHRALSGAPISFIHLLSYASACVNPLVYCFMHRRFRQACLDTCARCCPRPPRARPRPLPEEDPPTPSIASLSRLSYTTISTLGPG
Experimental: as §2

[5] = tested on: Pseudomonas stutzeri (Mb 1231, ATCC 11607); experiment: Agar diffusion disc assay, Pseu 1231; type: cell-based; details: Stutzerimonas stutzeri, ATCC11607, 18 h; @ 20 g/disc; read-out: Inhibition zone diameter, Pseu 1231
In short: as §1

[6] = tested on: Staphylococcus aureus (Mb 108, ATCC 6538P); experiment: Agar diffusion disc assay, Sta 108; type: cell-based; details: Staphylococcus aureus, ATCC6538P, 18 h; @ 20 g/disc; read-out: Inhibition zone diameter, Sta 108
In short: as §1

[7] = tested on: Streptococcus agalactiae (Mb 2875); experiment: Agar diffusion disc assay, Str 2875; type: cell-based; details: Streptococcus agalactiae, 18 h; @ 20 g/disc; read-out: Inhibition zone diameter, Str 2875
In short: as §1

[8] = target: T2, CCK-B (guinea pig cortex); experiment: [125I]BHCCK-8 radioligand binding, guinea pig cortical preparation; details: read-out: CCK binding inhibition - IC50, [125I]BHCCK
Experimental: as §2

[9] = tested on: Staphylococcus aureus (Mb 2983); experiment: Agar diffusion disc assay, Sta 2983; type: cell-based; details: Staphylococcus aureus, 18 h; @ 20 g/disc; read-out: Inhibition zone diameter, Sta 2983
In short: as §1

Bacillus sp. (Mb 633) = experiment: Agar diffusion disc assay, Baci 633; type: cell-based; details: Bacillus, 18 h
In short: as §1

[10] = tested on: Streptococcus faecium (Mb 2820); experiment: Agar diffusion disc assay, Str 2820; type: cell-based; details: Enterococcus faecium, 18 h; @ 20 g/disc; read-out: Inhibition zone diameter, Str 2820
In short: as §1

[11] = tested on: Salmonella gallinarum (Mb 1287); experiment: Agar diffusion disc assay, Salm 1287; type: cell-based; details: Salmonella enterica, GALLINARUM, 18 h; @ 20 g/disc; read-out: Inhibition zone diameter, Salm 1287
In short: as §1

[12] = tested on: Escherichia coli (Mb 1418); experiment: Agar diffusion disc assay, Coli 1418; type: cell-based; details: Escherichia coli, 18 h; @ 20 g/disc; read-out: Inhibition zone diameter, Coli 1418
In short: as §1

[13] = tested on: Corynebacterium pseudodiphtheriticum (Mb 261, ATCC 9742); experiment: Agar diffusion disc assay, Cory 261; type: cell-based; details: Corynebacterium pseudodiphtheriticum, ATCC9742, 18 h; @ 20 g/disc; read-out: Inhibition zone diameter, Cory 261
In short: as §1

[14] = tested on: Bacillus subtilis (Mb 964, ATCC 6633); experiment: Agar diffusion disc assay, Subt 964; type: cell-based; details: Bacillus subtilis, ATCC6633, 18 h; @ 20 g/disc; read-out: Inhibition zone diameter, Subt 964
In short: as §1

CCK-A (rat pancreas) [15] = target: T1, CCK-A (rat pancreas); experiment: [3H]L-364,718 CCK-A selective antagonist ligand binding, pancreas; details: read-out: CCK binding inhibition - IC50, [3H]L-364,718
Experimental: as §2

[16] = ATCC9341, 18 h, @ 20 g/disc, read-out: Inhibition zone diameter, Micr 1101
[17] = ATCC9341, 25° C., ~18 hours, read-out: Mean of triplicate zone size versus Micrococcus luteus
[18] = ATCC9341, 20.0 μg/disc, 25° C., ~18 hours, read-out: Mean of triplicate zone size versus Micrococcus luteus
[19] = @ 20 g/disc, read-out: Inhibition zone diameter, Baci 633

Compound | zone of inhibition at 20 µg/disc [1, 16] [mm] | MIC ([1]; ATCC9341, 18 h) [µM] | zone of inhibition at 2.5 µg/disc [1, 17] [mm] | zone of inhibition at 5 µg/disc [1, 17] [mm] | zone of inhibition at 10 µg/disc [1, 17] [mm] | zone of inhibition at 20 µg/disc [1, 18] [mm] | zone of inhibition at 20 µg/disc [2] [mm] | IC50 (CCK-A (rat pancreas) [3]) [µM] | A.R. = agonist ratio = IC50([3H]L365,260)/IC50([125I]CCK) [4] | IC50 [4] [µM] | zone of inhibition at 20 µg/disc [5] [mm] | zone of inhibition at 20 µg/disc [6] [mm] | zone of inhibition at 20 µg/disc [7] [mm] | IC50 [8] [µM] | zone of inhibition at 20 µg/disc [9] [mm] | zone of inhibition at 20 µg/disc [10] [mm] | zone of inhibition at 20 µg/disc [11] [mm] | zone of inhibition at 20 µg/disc [12] [mm] | zone of inhibition at 20 µg/disc [13] [mm] | zone of inhibition at 20 µg/disc [14] [mm] | also measured
Gastrin-17 | – | – | – | – | – | – | – | – | – | – | – | – | – | – | – | – | – | – | – | – | potency for stimulating gastric acid secretion relative to Gastrin-13 (gastric acid secretion): 2.5 times; potency for stimulating gastric acid secretion relative to Gastrin-34 (gastric acid secretion): 5 times
CCC(=O)O[C@@H]1/C=C(C)/C=C/CNC(=O)/C=C/[C@@H](C)[C@@H](C(C)C)OC(=O)C2=CCCN2C(=O)c2coc(n2)CC(=O)C1 [Example 3] | 0 | 2.51 (≈ 1.46 µg/mL) | 7 | 13 | 17 | 19 | 0 | > 3 | 2 | 1 | 0 | 0 | 0 | 0.6 | 12 | 0 | 0 | 0 | 0 | 21 | zone of inhibition at 20 µg/disc (Bacillus sp. (Mb 633); read-out: Inhibition zone diameter, Baci 633, @ 20 g/disc): 11 mm; IC50 (CCK-A (rat pancreas) [15]): > 3 µM
CC1=C\[C@@H](OC(=O)Nc2ccccc2[N+](=O)[O-])CC(=O)Cc2nc(co2)C(=O)N2CCC=C2C(=O)O[C@H](C(C)C)[C@H](C)/C=C/C(=O)NC\C=C\1 [Example 8] | 16 | 0.019 (≈ 0.0131 µg/mL) | 15 | 15 | 16 | 16 | 0 | > 3 | 10 | 3.1 | 0 | 7 | 0 | 0.3 | 0 | 0 | 0 | 0 | 9 | 0 | zone of inhibition at 1.25 µg/disc ([1]; ATCC9341, 1.25 μg/disc, 25° C., ~18 hours, read-out: Mean of triplicate zone size versus Micrococcus luteus): 12 mm; zone of inhibition at 20 µg/disc (Bacillus sp. (Mb 633); [19]): 0 mm; IC50 (CCK-A (rat pancreas) [15]): > 3 µM
CC(=O)O[C@@H]1/C=C(C)/C=C/CNC(=O)/C=C/[C@@H](C)[C@@H](C(C)C)OC(=O)C2=CCCN2C(=O)c2coc(n2)CC(=O)C1 [Example 2] | 21 | 3.24 (≈ 1.84 µg/mL) | 7 | 14 | 18 | 21 | 0 | > 3 | > 25 | > 3 | 0 | 11 | 0 | 0.7 | 0 | 0 | 0 | 0 | 13 | 0 | percentage in parentheses beside >3.0, [3H]L-365,260 (inhibition at top concentration, not defined) ([4]; beside IC50 >3.0): 21%; zone of inhibition at 20 µg/disc (Bacillus sp. (Mb 633); [19]): 0 mm; IC50 (CCK-A (rat pancreas) [15]): > 3 µM
